This is an account of results in the supplement of paper PMC10290057.

In assay [1] the test system is HCT116. Briefly: efficacy (fitted maximal change in viability relative to DMSO control); higher = less cytotoxic (negative = loss of viability). To be noted: 48 h.
Assay [2] concerns HCT116. Briefly: AC50 cell viability (CellTiter-Glo); higher = less potent. The conditions noted are these: 48 h. Background: Cellular ATP, detected with luciferase, serves as a proxy for viable cell number.
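Wherever AC50 cell viability (CellTiter-Glo) is given: HCT116 colorectal carcinoma cells screened at five concentrations per compound, luminescent viability scaled between DMSO wells and empty wells on each plate, curves fitted per compound.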
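Wherever efficacy (fitted maximal change in viability relative to DMSO control) is given: Luminescence-based viability readout, five doses per compound, normalized against on-plate DMSO and empty-well controls, followed by dose-response curve fitting for every drug.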

`CO[C@H]1CC[C@H](N2C(=O)CNc3ncc(-c4ccc(C(C)(C)O)nc4)nc32)CC1` [CC-223]: in the assay on HCT116 [1], the efficacy is -85.5%. Besides, in the assay on HCT116 [2], the AC50 cell viability came to 9.34 µM.
The like results for `c1cc(OCCN2CCCCC2)cc(-c2n[nH]c3ccc(-c4nc[nH]n4)cc23)c1` [CC-401] were, in that order, -70.1% and 14.8 µM.
Turning to `Cc1ccc(NC(=O)NCc2ccc3c(c2)CN(C2CCC(=O)NC2=O)C3=O)cc1Cl` (stereo not drawn) [CC-885], in the assay on HCT116 [1], the efficacy is -42.4%. Moreover, the AC50 cell viability with HCT116 [2] worked out at 0.0934 µM.
As for `COC1CC(C(=O)c2ccc3c(N)ncc(-c4ccc(-c5cnn(C)c5)cc4)c3n2)C1` (stereo not drawn) [CDK8i-51], the efficacy in the assay on HCT116 [1] is -34.9%. In the assay with HCT116 [2], the AC50 cell viability came to 5.25 µM.
Consider `Cc1ccc(Nc2cc(-c3cccc(N4C(=O)c5ccccc5C4=O)c3)ncn2)cc1N[S+](C)(=O)[O-]` [CDK9 Inhibitor], for which the efficacy in the assay with HCT116 [1] was -73.6%. In addition, the AC50 cell viability with HCT116 [2] amounted to 20.9 µM.
The like results for `COc1cc2c(cc1OC(C)C)[C@H](c1ccc(Cl)cc1)N(c1ccc(N(C)C[C@H]3CC[C@H](N4CCN(C)C(=O)C4)CC3)cc1)C(=O)C2` [CGM-097] were, in that order, -123% and 14.8 µM.
Taken in the same sequence, the figures for `ClC1=CC\2=C(NC(=O)\C(=C2N[C@@H]3CN4CCC3CC4)C5=NC6=C([NH]5)C=CC=C6)C=C1` [CHIR-124] were -80.9% and 0.833 µM.
The like results for `Cn1c(Nc2ccc(C(F)(F)F)cc2)nc2cc(Oc3ccnc(-c4nc(C(F)(F)F)c[nH]4)c3)ccc21` [CHIR-265] were, in that order, -108% and 5.25 µM.
In the case of `CC(=O)Nc1cc(Oc2ccc3c(nc(Nc4ccc(F)cc4F)n3C)c2C)ccn1` [CHZ868], in the assay with HCT116 [1], the efficacy was -67.4%. The same molecule showed an AC50 cell viability in the assay on HCT116 [2] of 0.833 µM.
Taken in the same sequence, the figures for `OC(=O)/C1=C/CCN(CCOC(C2=CC=C(C=C2)C(F)(F)F)C3=CC=C(C=C3)C(F)(F)F)C1` [CI-966] were -37.1% and 18.6 µM.
As for `CC(C)n1cnc2c(NCCCCCCNC(=O)OC(C)(C)C)nc(NCCO)nc21` [CK-59], in the assay on HCT116 [1], the efficacy was -79.7%. The molecule also displayed an AC50 cell viability in the assay on HCT116 [2] of 26.3 µM.
Taken in the same sequence, the figures for `COc1c(C)cnc(Cn2cnc3c(Cl)nc(N)nc32)c1C` [CNF-2024] were -57% and 0.148 µM.
Regarding `C=CC(=O)Nc1cccc(Nc2nc(Nc3ccc(Oc4ccnc(C(=O)NC)c4)cc3)ncc2F)c1` [CNX-774], the efficacy in the assay with HCT116 [1] was -111%. The molecule also displayed an AC50 cell viability in the assay on HCT116 [2] of 14.8 µM.
Consider `C=CC(=O)Nc1cccc(Nc2nc(Nc3ccc(NC4CN(CCF)C4)cc3OC)ncc2C(F)(F)F)c1` [CNX-2006], for which the efficacy in the assay with HCT116 [1] was -105%. In addition, the AC50 cell viability in the assay on HCT116 [2] amounted to 10.5 µM.
Taken in the same sequence, the figures for `CC1=C(C)C\2=C(S1)[N]3C(=NN=C3C(CC(N)=O)\N=C2C4=CC=C(Cl)C=C4)C` (stereo not drawn) [CPI-203] were -62.8% and 0.295 µM.
The like results for `CC1=C(C)C\2=C(S1)[N]3C(=NN=C3[C@H](CC(N)=O)\N=C2C4=CC=C(Cl)C=C4)C` [CPI-203] were, in that order, -58.5% and 0.372 µM.
Taken in the same sequence, the figures for `Cc1noc2c1-c1ccccc1C(c1ccc(Cl)cc1)=N[C@H]2CC(N)=O` [CPI-0610] were -65.4% and 1.05 µM.
For `C[C@@H]1CC(=O)Nc2cccc(-c3ccc4c(c3)c(-c3cnn(C)c3)nn4C)c2N1` [CPI-637], the efficacy in the assay with HCT116 [1] is -82.6%. Further, the AC50 cell viability in the assay on HCT116 [2] was 11.8 µM.
Taken in the same sequence, the figures for `C[C@@H]1CC(=O)Nc2cccc(-c3cnn(C(C)(C)C)c3)c2N1` [CPI-703] were -37.4% and 16.6 µM.
The like results for `O=C(NO)C1(C[S+](=O)([O-])c2ccc(Oc3ccc(Cl)cc3)cc2)CCOCC1` [CTS-1027] were, in that order, -61.5% and 20.9 µM.
The like results for `C#Cc1cccc(Nc2ncnc3cc(OC)c(OCCCCCCC(=O)NO)cc23)c1` [CUDC-101] were, in that order, -81.3% and 0.332 µM.
For `CN(C)c1cc2c(cc1Sc1nc3c(N)nccc3n1CCNCC(C)(C)C)OCO2` [CUDC-305], in the assay on HCT116 [1], the efficacy is -66.5%. Also, the AC50 cell viability with HCT116 [2] stood at 0.468 µM.
Taken in the same sequence, the figures for `COc1ccc(-c2nc(N3CCOCC3)c3sc(CN(C)c4ncc(C(=O)NO)cn4)cc3n2)cn1` [CUDC-907] were -96.8% and 0.0372 µM.
Taken in the same sequence, the figures for `COc1ccc(CNc2nc(N(CCO)CCO)nc3c2ncn3C(C)C)cc1` [CVT-313] were -54.3% and 3.32 µM.
Taken in the same sequence, the figures for `CN1CCCN(CC1)C2=CC=C3C(=O)\C(=C/4SC5=C(C=CC=C5)N4C3=N2)C(=O)NCC6=CN=C(C)C=N6` [CX-5461] were -49.8% and 1.35 µM.
Turning to `CN1CCCN(C(=O)c2cccc(-c3ccc(/C=C4/C(=O)Nc5ccc(Cl)cc54)o3)c2)CC1` [CX-6258], in the assay with HCT116 [1], the efficacy was -97.8%. In the assay on HCT116 [2], this molecule returned an AC50 cell viability of 7.42 µM.
The like results for `Cc1nc(N)sc1-c1ccnc(Nc2ccc(N3CCOCC3)cc2)n1` [CYC-116] were, in that order, -61% and 2.09 µM.
The like results for `CO[C@H]1C[C@H]2OC[C@@]2(OC(C)=O)[C@H]3[C@H](OC(=O)C4=CC=CC=C4)[C@]5(O)C[C@H](OC(=O)[C@H](O)[C@@H](NC(=O)OC(C)(C)C)C6=CC=CC=C6)/C(=C(/[C@@H](OC)C(=O)[C@]13C)C5(C)C)C` [Cabazitaxel] were, in that order, -57.4% and 0.00263 µM.
For the molecule `COc1cc2nccc(Oc3ccc(NC(=O)C4(C(=O)Nc5ccc(F)cc5)CC4)cc3)c2cc1OC` [Cabozantinib], in the assay with HCT116 [1], the efficacy is -65.4%. This molecule came in with an AC50 cell viability in the assay with HCT116 [2] of 7.42 µM.
The like results for `CC(N[C@H]1CCCC[C@@H]1NC(=O)c1ccc(Cl)cc1)c1cccc2ccccc12` (stereo partly drawn) [Calhex-231] were, in that order, -92.8% and 9.34 µM.
For the molecule `C[C@@H](NCc1cc2ccccc2[nH]1)c1cccc2ccccc12` [Calindol], the efficacy with HCT116 [1] was -94.8%. The molecule also showed an AC50 cell viability in the assay with HCT116 [2] of 13.2 µM.
Taken in the same sequence, the figures for `Clc1ccc(C(c2ccc(Cl)cc2)[n+]2ccn(CC(OCc3ccc(Cl)cc3Cl)c3ccc(Cl)cc3Cl)c2)cc1` (stereo not drawn) [Calmidazolium chloride] were -100% and 10.5 µM.
The like results for `Cc1ccc([C@@H]2O[C@H](CO)[C@@H](O)[C@H](O)[C@H]2O)cc1Cc1ccc(-c2ccc(F)cc2)s1` [Canagliflozin] were, in that order, -83.7% and 23.5 µM.
The like results for `C=CC(=O)Nc1cc2c(Nc3ccc(F)c(Cl)c3)ncnc2cc1OCCCN1CCOCC1` [Canertinib] were, in that order, -116% and 14.8 µM.
Turning to `CCCCCC1=CC(=C([C@@H]2\C=C(C)/CC[C@H]2C(C)=C)C(=C1)O)O` [Cannabidiol], in the assay on HCT116 [1], the efficacy was -84.5%. Besides, the AC50 cell viability in the assay with HCT116 [2] was 20.9 µM.
The like results for `C[C@@]12C(=O)OC(=O)[C@]1(C)[C@H]1CC[C@@H]2O1` [Cantharidin] were, in that order, -86.9% and 9.34 µM.
Taken in the same sequence, the figures for `CC(C)C[C@H](NC(=O)[C@H](CCc1ccccc1)NC(=O)CN1CCOCC1)C(=O)N[C@@H](Cc1ccccc1)C(=O)N[C@@H](CC(C)C)C(=O)[C@@]1(C)CO1` [Carfilzomib] were -93.6% and 0.0118 µM.
As for `CCCCCCNC(=O)N1\C=C(F)/C(=O)NC1=O` [Carmofur], in the assay on HCT116 [1], the efficacy is -61.6%. In the assay with HCT116 [2], this molecule had an AC50 cell viability of 4.17 µM.
Taken in the same sequence, the figures for `CCNc1cc(NC2CCC(O)CC2)nc(Nc2ccc3c(ccn3Cc3ccccc3)c2)n1` (stereo not drawn) [Cdk4/6 Inhibitor IV] were -51.1% and 20.9 µM.
Taken in the same sequence, the figures for `COc1cc2c(Oc3ccc4[nH]c(C)cc4c3F)ncnc2cc1OCCCN1CCCC1` [Cediranib] were -111% and 14.8 µM.
Taken in the same sequence, the figures for `Cc1ccc(-c2cc(C(F)(F)F)nn2-c2ccc([S+](N)(=O)[O-])cc2)cc1` [Celecoxib] were -77.8% and 18.6 µM.
Take `C/C=C(\C)C(=O)N[C@@H](c1ccccc1)[C@@H](O)C(=O)O[C@H]1C[C@@]2(O)[C@@H](OC(=O)c3ccccc3)[C@@H]3[C@]4(OC(C)=O)CO[C@@H]4C[C@H](O)[C@@]3(C)C(=O)[C@H](OC(C)=O)C(=C1C)C2(C)C` [Cephalomannine]: the efficacy in the assay with HCT116 [1] was -63.5%. Also, the AC50 cell viability in the assay on HCT116 [2] worked out at 0.0263 µM.
Taken in the same sequence, the figures for `Cc1cc(Nc2ncc(Cl)c(Nc3ccccc3[S+](=O)([O-])C(C)C)n2)c(OC(C)C)cc1C1CCNCC1` [Ceritinib] were -115% and 13.2 µM.
Taken in the same sequence, the figures for `C/C=C/C/C=C/CCC(=O)[C@H]1O[C@H]1C(N)=O` [Cerulenin] were -80.2% and 16.6 µM.
`CNCCCOc1cc(F)c(-c2c(Cl)nc3ncnn3c2N[C@@H](C)C(F)(F)F)c(F)c1` [Cevipabulin]: the efficacy with HCT116 [1] is -60.6%. Further, the AC50 cell viability in the assay on HCT116 [2] is 0.0525 µM.
For `Nc1ccc(F)cc1NC(=O)c1ccc(CNC(=O)/C=C/c2cccnc2)cc1` [Chidamide], the efficacy in the assay on HCT116 [1] is -90.4%. In addition, in the assay with HCT116 [2], the AC50 cell viability came to 5.9 µM.
The like results for `N=C(NCCCCCCNC(=N)NC(=N)Nc1ccc(Cl)cc1)NC(=N)Nc1ccc(Cl)cc1` [Chlorhexidine] were, in that order, -93.5% and 20.9 µM.
`Oc1c(Cl)cc(Cl)c2cccnc12` [Chloroxine]: in the assay with HCT116 [1], the efficacy is -86.7%. Moreover, the AC50 cell viability in the assay on HCT116 [2] worked out at 13.2 µM.
The like results for `OC1=CC2=C(C(=C1)O)C(=O)\C=C(/O2)C3=CC=CC=C3` [Chrysine] were, in that order, -49.1% and 20.9 µM.
